The source of these data is US20260071179A1, “PRODUCTION METHOD OF NERVE CELLS DAMAGED BY OXIDATIVE STRESS AND APPLICATIONS THEREOF” (FUJIFILM Corporation, priority 2023, published 2026).

The structures appear in SMILES notation.

In the first test the test system is iCell motor neurons. Briefly: Evaluation of necroptosis inhibitor for oxidative stress-induced neuronal damage (neurite length, IncuCyte S3 Neurotrack). Conditions: iCell motor neurons in −AO culture medium (Stress(+)), 4.7×10^4 cells/cm^2, compound 0.01 to 20 μM, FIG. 14. The test is classed as cell-based, human. Here is the method: (§1) A solution obtained by diluting iMatrix-511 silk (Matrixome, 892021) 16.7 times with PBS was added to a 96-well plate (Corning, 356461) coated with PDL at 70 μL/well, and incubated at 37° C. for 3 hours to 72 hours.
(§2) As a culture medium containing an antioxidant, a culture medium (Stress(−)) in which DMSO was added to a +AO culture medium to a final concentration of 0.1% by volume (v/v) was used, as a culture medium not containing an antioxidant, a culture medium (Stress(+)) in which DMSO was added to a −AO culture medium to a final concentration of 0.1% by volume (v/v), and as the culture medium of the drug evaluation group, a culture medium in which a DMSO-dissolved compound was added to the −AO culture medium to a concentration of 0.1% by volume (v/v) (0.01 to 20 μM) was used.
Frozen cells (iCell motor neurons, FCDI, C1048) were thawed in a warm bath at 37° C. After melting, the cells were added to a culture medium and centrifuged at 600×g at room temperature for 5 minutes. After centrifugation, the supernatant was removed, the cells were suspended in 1 mL of the culture medium, and the number of cells was counted. Thereafter, the cells were diluted with a culture medium, seeded at 200 μL/well (4.7×10^4 cells/cm^2), and cultured under the conditions of 37° C. and 5% CO2. […]
(§3) The neurite length was quantified using the Neurotrack software (Sartorius, 9600-0010) of IncuCyte S3.
Take `CN1C(=O)C(Cc2c[nH]c3ccccc23)NC1=S` (stereo not shown) [Necrostatin-1]: the “reduction in the sum of the neurite lengths” value was “suppressed in a concentration-dependent manner”.

The subject of the next test is nerve cells (considered to be cortical excitatory neurons) produced by forcibly expressing the Ngn2 genes from the iPS cells. Description: Evaluation of compound for oxidative stress-induced neuronal damage (neurite length, IncuCyte S3 Neurotrack). The test is classed as cell-based, human. Particulars: same method as in Test Example 7, −AO culture medium (Stress(+)), FIG. 19. As to the method:
as §1
As a culture medium containing an antioxidant, a culture medium (Stress(−)) in which DMSO was added to a +AO culture medium to a final concentration of 0.1% by volume (v/v) was used, as a culture medium not containing an antioxidant, a culture medium (Stress(+)) in which DMSO was added to a −AO culture medium to a final concentration of 0.1% by volume (v/v), and as the culture medium of the drug evaluation group, a culture medium in which a DMSO-dissolved compound was added to the −AO culture medium to a concentration of 0.1% by volume (v/v) (0.004 to 20 μM) was used.
The nerve cells (considered to be cortical excitatory neurons) produced by forcibly expressing the Ngn2 genes from the iPS cells was thawed in a warm bath at 37° C. […] After centrifugation, the supernatant was removed, the cells were suspended in 1 mL of the culture medium, and the number of cells was counted. […]
as §3
The effect of edaravone, which was used as a therapeutic drug for ALS, on oxidative stress-induced neuronal damage was evaluated by the same method as in Test Example 7. […]
On to `CC1=NN(c2ccccc2)C(=O)C1` [edaravone], for which the “reduction in the sum of the neurite lengths” value is reported as “suppressed in a concentration-dependent manner”.

In a further test the test system is iCell motor neurons. Description: Compound screening using oxidative stress-induced neuronal damage evaluation system (AUC of neurite length over 14 days). Conditions: iCell motor neurons in −AO culture medium (Stress(+)), 4.7×10^4 cells/cm^2, StemSelect Library compounds, FIG. 18. It is filed as cell-based, human. As to the method: as §1
as §2, with “As the compound library, StemSelect Library compounds (Merck, 569774) were used. As” for “As”, “(v/v)” for “(v/v) (0.01 to 20 μM)”
Frozen cells (iCell motor neurons, FCDI, C1048) were thawed in a warm bath at 37° C. After melting, the cells were added to a culture medium and centrifuged at 600×g at room temperature for 5 minutes. After centrifugation, the supernatant was removed, the cells were suspended in 1 mL of the culture medium, and the number of cells was counted. Thereafter, the cells were diluted with a culture medium, seeded at 200 μL/well (4.7×10^4 cells/cm^2), and cultured under the conditions of 37° C. and 5% CO2. After culturing, images were acquired by imaging with IncuCyte S3 (Sartorius, Incucyte S3) every 6 hours.
The neurite length was quantified using the Neurotrack software (Sartorius, 9600-0010) of IncuCyte S3. The area under the curve (AUC) of the curve of the neurite length over time for 14 days was calculated, and the effects of the drug were compared. […] The AUC of the nerve cells (Stress(+) group) (▴) cultured in the culture medium not containing an antioxidant was reduced as compared with the nerve cells (Stress(−) group) (▪) cultured in the culture medium containing an antioxidant.
For `c1nc2nc(Nc3ccc(N4CCOCC4)cc3)nc(NC3CCCCC3)c2[nH]1` [Reversine], the “reduction in AUC of the curve of the neurite length over time for 14 days” value (from here on “reduction in AUC”) is on record as “strongly suppressed”.
With `O=C(Nc1cccc(NC(=O)c2cccc(O)c2O)c1)c1cccc(O)c1O` [Telomerase Inhibitor IX], the “reduction in AUC” value is on record as “strongly suppressed”.
Same read-out and setting: the value for `Clc1ccccc1CNCC1CCC(CNCc2ccccc2Cl)CC1` (stereo not shown) [AY 9944] was “strongly suppressed”.
Regarding `C=CC(C)(C)c1cc(/C=C/C(=O)c2ccc(O)cc2)c(OC)cc1O` [Licochalcone-A], the “reduction in AUC” value is recorded as “strongly suppressed”.
`CC#C[C@]1(O)CC[C@H]2[C@@H]3CCC4=CC(=O)CCC4=C3[C@@H](c3ccc(N(C)C)cc3)C[C@@]21C` [Mifepristone]: the “reduction in AUC” value is “strongly suppressed”.
For `C[C@H](NC(=O)Cc1cc(F)cc(F)c1)C(=O)N[C@H]1N=C(c2ccccc2)c2ccccc2N(C)C1=O` [γ-Secretase Inhibitor XXI], the “reduction in AUC” value was “strongly suppressed”.
With `CC[C@H](C)C(=O)O[C@H]1CCC=C2C=C[C@H](C)[C@H](CC[C@@H]3C[C@@H](O)CC(=O)O3)[C@H]21` [Mevastatin], the “reduction in AUC” value is “strongly suppressed”.
Turning to `c1ccc2c(Oc3nc(Nc4ccc(N5CCOCC5)cc4)c4ncn(C5CCCCC5)c4n3)cccc2c1` [Purmorphamine], the “reduction in AUC” value was “strongly suppressed”.
On the same count and under the same terms, the value for `N=C(N)SCCc1ccc(OCc2ccc([N+](=O)[O-])cc2)cc1` [KB-R7943] was “strongly suppressed”.
With `O=C(O)c1ccc2cc(-c3ccc(O)c(C45CC6CC(CC(C6)C4)C5)c3)ccc2c1` [CD437/AHPN], the “reduction in AUC” value was “strongly suppressed”.
For `CCCC(=O)OCc1ccc(OC(=O)/C=C(C)/C=C/C=C(C)/C=C/C2=C(C)CCCC2(C)C)cc1` [ATRA-BA Hybrid], the “reduction in AUC” value is recorded as “strongly suppressed”.
